The text below walks through data of the NIST ThermoML archive (doi:10.1016/j.tca.2004.11.022).

± gives the expanded uncertainty stated by the source.

For data set [1] the following is noted: 101.33 kPa, Liquid; for mass density: Vibrating tube method; for speed of sound: Pulse-echo method.
Data set [2] can be described thus: molar heat capacity at constant pressure. The settings on record: 101.33 kPa, Liquid, Small sample (50 mg) DSC.

Turning to `COC(=O)OC` [dimethyl carbonate], the mass density (usually the mass of a sample divided by its volume) in data set [1] (288.15 K) was determined as 1076.56 ± 0.55 kg/m3; in data set [1] (293.15 K), 1070.02 ± 0.55 kg/m3; in data set [1] (298.15 K), 1063.42 ± 0.55 kg/m3; in data set [1] (308.15 K) it was 1050.11 ± 0.54 kg/m3. Also, the speed of sound (usually how fast a sound wave travels through the sample) in data set [1] (298.15 K) is recorded as 1197.1 ± 1.6 m/s. In addition, the “molar heat capacity at constant pressure” value was determined as 164.03 ± 3.3 J/K/mol in data set [2] (288.15 K), 165.02 ± 3.3 J/K/mol in data set [2] (298.15 K) and 166.3 ± 3.3 J/K/mol in data set [2] (308.15 K).

Consider `CCCCCCCCC` [nonane], for which the mass density in data set [1] (288.15 K) is listed as 721.66 ± 0.41 kg/m3; in data set [1] (293.15 K) it was 717.75 ± 0.41 kg/m3; in data set [1] (298.15 K) it was 713.85 ± 0.41 kg/m3; in data set [1] (308.15 K) it was 706.05 ± 0.41 kg/m3. Besides, the speed of sound in data set [1] (298.15 K) came to 1206.3 ± 1.6 m/s. In addition, the “molar heat capacity at constant pressure” value amounted to 280.13 ± 5.6 J/K/mol in data set [2] (288.15 K), 284.23 ± 5.7 J/K/mol in data set [2] (298.15 K) and 288.8 ± 5.8 J/K/mol in data set [2] (308.15 K).

As to `CCCCCCCC` [octane], the mass density in data set [1] (288.15 K) came to 706.54 ± 0.26 kg/m3; in data set [1] (293.15 K) it was 702.53 ± 0.26 kg/m3; in data set [1] (298.15 K), 698.5 ± 0.27 kg/m3; in data set [1] (308.15 K), 690.34 ± 0.27 kg/m3. Also, the speed of sound in data set [1] (298.15 K) was found to be 1172.1 ± 1.3 m/s. The “molar heat capacity at constant pressure” value in data set [2] (288.15 K) was 250.12 ± 5 J/K/mol; in data set [2] (298.15 K) it was 253.94 ± 5.1 J/K/mol; in data set [2] (308.15 K) it was 258.03 ± 5.2 J/K/mol.
